# In patent publication US20150374689A1, “Use of Levosimendan to Treat Left Ventricular Systolic Dysfunction in Patients Undergoing Cardiac Surgery Requiring Cardiopulmonary Bypass” (TENAX Therapeutics, Inc., priority 2014, published 2015):
# Tests used:
# [1] = cited from earlier work; for formation of the metabolite: patients undergoing cardiac surgery
# [2] = test system: patients with left ventricular systolic dysfunction undergoing cardiac surgery requiring cardiopulmonary bypass; experiment: Double-blind, randomized, placebo-controlled clinical trial of levosimendan (Example 1); assay type: in vivo, human
# Procedure: A randomized, double-blind, placebo-controlled, multicenter study of levosimendan is conducted in subjects with pre-existing left ventricular systolic dysfunction (documented (i) LVEF≦25% in CABG surgery patients, or (ii) LVEF≦35% in CABG with aortic valve surgery patients, CABG with mitral valve surgery patients, or isolated mitral valve surgery patients) with or without heart failure (NYHA functional Class I-IV), undergoing (1) CABG surgery, (2) CABG with aortic valve surgery, (3) CABG with mitral valve surgery, or (4) isolated mitral valve surgery.
# All patients are randomized with planned CPB. Approximately 760 subjects are enrolled in the study. Subjects are randomly assigned to receive either levosimendan or a matching placebo in a 1:1 ratio. The study is divided into a screening phase, a double-blind treatment phase, a double-blind post-treatment and follow-up phase from hospital discharge through Day 30. Day 0 is the day of study drug (levosimendan or matching placebo) initiation. All randomly assigned subjects are followed for 90 days, including subjects who were randomly assigned to treatment but not treated.
# In the double-blind treatment phase, every attempt is made to start treatment with study drug as soon as possible prior to surgery. However, in all cases study drug is initiated after arterial line insertion and before skin incision. If a Swan-Ganz catheter is planned, it is preferable to insert it prior to study drug initiation. Study drug is administered as described below. Subjects who were randomly assigned to treatment but not treated will be followed (a) through Day 5 for perioperative MI and the need for IABP/LVAD/ECMO, (b) through postoperative […] for postoperative MI (Day 6-10) and postoperative dialysis, and (c) the occurrence of all-cause mortality through Day 90. All subjects may receive additional standard of care medications including inotropes, vasopressors, vasopressin, antiarrhythmics, diuretics, nitrates, and/or nitric oxide as needed. Due to the potential hypotensive effects of the study drug, the concomitant use of vasodilatory drugs should be used with caution.
# Subjects are assigned to 1 of 2 treatment groups (levosimendan 0.2 μg/kg/min for first hour, followed by 0.1 μg/kg/min for the next 23 hours or matching placebo) in a 1:1 ratio based on a computer-generated randomization schedule prepared before the start of the study by an independent statistical group not otherwise involved in the conduct or analysis of the study.
# The concentration of the diluted infusion is about 50 μg/mL in 5% dextrose (12.5 mg/255 mL in a 250 mL bag; 25 mg/510 mL, 2 vials in a 500 mL bag). The i.v. tubing is primed to fill the volume to the i.v. entry site before starting the infusion. The diluted infusion is administered intravenously by a peripheral or central route. No other treatments are administered via the same line, and no bolus of study drug is administered. Study drug is infused as a continuous infusion of 0.2 μg/kg/min over the first 60 minutes. After 1 hour, the flow rate is decreased to a continuous infusion of 0.1 μg/kg/min. This dose of study drug is continued for the next 23 hours. On completion of the 24-hour infusion period, the study drug infusion is switched off abruptly.
# All-cause mortality data (e.g., the cause and date of death) is collected for all subjects up to Day 30 (+5). A follow-up call documents mortality between Day 30 visit and Day 90. […]
# [3] = through Day 5, same 24-hour infusion regimen
Compound,formation of the metabolite [1],"time at which maximum concentrations are seen ([1]; after starting a 24-hour infusion, heart failure patients) [days]",elimination half-life ([1]; heart failure patients) [h],"rate of all-cause death at Day 30 as compared to placebo ([2]; Day 30, same 24-hour infusion regimen)","peri- and postoperative morbidity and mortality as compared to placebo ([2]; levosimendan i.v. 0.2 μg/kg/min for first hour, then 0.1 μg/kg/min for 23 hours, started before skin incision, plus standard care)","rate of perioperative MI as compared to placebo [2, 3]","use of mechanical assist (IABP, LVAD, or ECMO) as compared to placebo [2, 3]","need for dialysis as compared to placebo ([2]; through Day 30, same 24-hour infusion regimen)",share of total dose metabolised by the minor pathway (reduction in the intestine to OR-1855) ([1]; of the total levosimendan dose)
C[C@@H]1CC(=O)NN=C1c1ccc(N)cc1 [OR-1855],delayed,,,,,,,,
CC(=O)Nc1ccc(C2=NNC(=O)C[C@H]2C)cc1 [OR-1896],delayed,2 to 4,70 to 80,,,,,,
"CC1CC(=O)NN=C1c1ccc(NN=C(C#N)C#N)cc1 (single isomer, unassigned; (-)) [levosimendan, (−)-enantiomer of [[4-(1,4,5,6-tetrahydro-4-methyl-6-oxo-3-pyridazinyl)phenyl]hydrazono]prop anedinitrile]",,,,smaller,reduces,smaller,reduced,lesser,approximately 6%
